# Assay results reported in PubChem BioAssay (NCI).
#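 Grown in 96-well plates, cells were treated for 48 hours with each compound at five concentrations. Insufficient inhibition: endpoint recorded as highest concentration tested. Abbreviation: GI50, concentration required for 50% inhibition of growth. TGI marks complete inhibition of growth.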
# Tests used:
# Assay in all cases: inhibition of tumour cell growth, NCI panel, 48 h
# SNB-19 CNS = tested on: SNB-19 CNS
# MOLT-4 leukemia = tested on: MOLT-4 leukemia
# OVCAR-3 ovarian = tested on: OVCAR-3 ovarian
# SN12C renal = tested on: SN12C renal
# UACC-62 melanoma = tested on: UACC-62 melanoma
# OVCAR-8 ovarian = tested on: OVCAR-8 ovarian
# K-562 leukemia = tested on: K-562 leukemia
# 786-0 renal = tested on: 786-0 renal
# HL-60(TB) leukemia = tested on: HL-60(TB) leukemia
# HS 578T breast = tested on: HS 578T breast
Compound,TGI (SNB-19 CNS),TGI (MOLT-4 leukemia),TGI (OVCAR-3 ovarian),TGI (SN12C renal),TGI (UACC-62 melanoma),TGI (OVCAR-8 ovarian),TGI (K-562 leukemia),TGI (786-0 renal),TGI (HL-60(TB) leukemia),GI50 (MOLT-4 leukemia),GI50 (OVCAR-3 ovarian),GI50 (SN12C renal),GI50 (UACC-62 melanoma),GI50 (OVCAR-8 ovarian),GI50 (K-562 leukemia),GI50 (HS 578T breast),TGI (HS 578T breast),GI50 (786-0 renal),GI50 (HL-60(TB) leukemia),GI50 (SNB-19 CNS)
COC(=O)C1Cc2c([nH]c3ccccc23)C=N1 (centres undefined),> 100 µM,> 100 µM,> 100 µM,> 100 µM,> 100 µM,> 100 µM,> 100 µM,> 100 µM,> 100 µM,,,,,,,,,,,
CC1=C(C)C(=O)C(C(C)C2=C(C)C(=O)C(C)=C(C)C2=O)=C(C)C1=O,,27.6 µM,54 µM,> 100 µM,> 100 µM,> 100 µM,> 100 µM,> 100 µM,24.5 µM,8.88 µM,21 µM,56 µM,19.3 µM,33.3 µM,13.2 µM,29.2 µM,> 100 µM,50.8 µM,6.94 µM,
Cc1cc(Cl)ccc1NC(=O)C1C(=O)N(c2ccc(Cl)cc2C)C(=O)/C1=N\N (centres undefined),> 100 µM,> 100 µM,> 100 µM,> 100 µM,> 100 µM,> 100 µM,> 100 µM,> 100 µM,> 100 µM,,,,,,,,,,,
O=C(/C=C/c1ccccc1F)C(c1ccccc1)c1ccccc1,5.46 µM,6.6 µM,15.2 µM,15.2 µM,4.56 µM,,9.74 µM,5.8 µM,11.8 µM,,,,,,,,,,,
N#CC(C#N)=C1NC(=O)C(c2ccccc2)C(=O)N1 (centres undefined),> 100 µM,> 100 µM,> 100 µM,> 100 µM,> 100 µM,> 100 µM,> 100 µM,> 100 µM,> 100 µM,,,,,,,,,,,
COc1nc2c(nc(N)n2C2OC(CO)C(O)C(O)C2O)c(=O)n1C (centres undefined),> 100 µM,,> 100 µM,> 100 µM,> 100 µM,> 100 µM,> 100 µM,> 100 µM,> 100 µM,,,,,,,,,,,
N#C/C(=C/N1CCN(C(=O)c2ccco2)C1=S)C(N)=O,> 100 µM,> 100 µM,59.8 µM,32.2 µM,38.3 µM,> 100 µM,> 100 µM,46.9 µM,57.3 µM,39.8 µM,19 µM,12 µM,14 µM,43.7 µM,9.13 µM,,,18 µM,22 µM,36.4 µM
NS(=O)(=O)c1ccc(-n2nc(-c3ccc(Cl)cc3)cc2C2=CC(=O)C=CC2=O)cc1,,> 100 µM,42.9 µM,36.5 µM,34.1 µM,73.7 µM,74.1 µM,36 µM,> 100 µM,> 100 µM,22.7 µM,19.7 µM,14.2 µM,24.2 µM,19.4 µM,23.8 µM,72.6 µM,19.8 µM,34 µM,
CCCCCCCCCCCCC(Br)C(=O)SCCNC(=O)CCNC(=O)[C@@H](O)C(C)(C)COP(=O)(O)OP(=O)(O)OCC1OC(n2cnc3c(N)ncnc32)C(O)C1OP(=O)(O)O (some centres undefined),> 56.5 µM,,> 56.5 µM,> 56.5 µM,> 56.5 µM,> 56.5 µM,,> 56.5 µM,> 56.5 µM,,,,,,,,,,,
CNCCNc1nc2ccccc2c2c(=O)c3cccc(OC)c3sc12,,1.63 µM,3.02 µM,2.53 µM,2.97 µM,2.8 µM,2.65 µM,3.35 µM,3.64 µM,0.427 µM,1.52 µM,1.08 µM,1.57 µM,1.15 µM,0.596 µM,1.57 µM,3.97 µM,1.76 µM,1.8 µM,
COC(=O)/C(C#N)=C1\N=NNN1CCCc1ccccc1,> 100 µM,> 100 µM,> 100 µM,> 100 µM,> 100 µM,> 100 µM,> 100 µM,> 100 µM,,,,,,,,,,,,
CC(CN(CP(=O)([O-])[O-])CP(=O)([O-])[O-])N(CP(=O)([O-])[O-])CP(=O)([O-])[O-].N[C@@H]1CCCC[C@@H]1N.[Pt+2] (centres undefined),> 100 µM,> 100 µM,> 100 µM,> 100 µM,> 100 µM,> 100 µM,> 100 µM,> 100 µM,> 100 µM,> 100 µM,> 100 µM,> 100 µM,> 100 µM,> 100 µM,> 100 µM,,,> 100 µM,> 100 µM,> 100 µM
Cc1cc2c(=O)cc(-c3ccc(Cl)cc3)oc2c(C(=O)O)c1C,> 100 µM,> 100 µM,> 100 µM,> 100 µM,> 100 µM,> 100 µM,> 100 µM,> 100 µM,,,,,,,,,,,,
O=[N+]([O-])c1ccc2[nH]cc(-c3c4ccccc4cc4[nH]c5ccc([N+](=O)[O-])cc5c34)c2c1,9.13 µM,6.55 µM,7.32 µM,7.92 µM,3.47 µM,8.17 µM,> 100 µM,4.09 µM,,2.45 µM,2.57 µM,2.84 µM,1.63 µM,2.59 µM,3.5 µM,2.35 µM,8.19 µM,1.94 µM,,2.88 µM
C/C=C/C1(NS(=O)(=O)c2ccc(C)cc2)CCC(C(C)(C)C)CC1 (centres undefined),> 100 µM,39.9 µM,34.9 µM,34.7 µM,37.4 µM,> 100 µM,99.5 µM,43.8 µM,44.5 µM,,,,,,,,,,,
O=C1c2cccnc2-c2nc(-c3ccc([N+](=O)[O-])cc3)cc3c2c1nc1ccccc13,18.3 µM,> 100 µM,1.74 µM,25.7 µM,15.6 µM,6.76 µM,> 100 µM,40.1 µM,,53.5 µM,0.261 µM,11.3 µM,5.43 µM,1.5 µM,20.7 µM,4.1 µM,23.6 µM,10.4 µM,,6.4 µM
CCOc1ccc(NC(=O)C2=C(C)NC(C)=C(C(=O)Nc3ccc(OCC)cc3)C2c2ccc([N+](=O)[O-])cc2)cc1,> 100 µM,66.9 µM,> 100 µM,> 100 µM,,> 100 µM,> 100 µM,> 100 µM,52.7 µM,,,,,,,,,,,
C[Si](C)(C)/C(Br)=C\CCN1C(=O)CCC1O (centres undefined),> 100 µM,> 100 µM,> 100 µM,> 100 µM,> 100 µM,> 100 µM,> 100 µM,> 100 µM,,,,,,,,,,,,

Compound,TGI (SNB-19 CNS),TGI (MOLT-4 leukemia),TGI (OVCAR-3 ovarian),TGI (SN12C renal),TGI (UACC-62 melanoma),TGI (OVCAR-8 ovarian),TGI (K-562 leukemia),TGI (786-0 renal),TGI (HL-60(TB) leukemia),GI50 (MOLT-4 leukemia),GI50 (OVCAR-3 ovarian),GI50 (SN12C renal),GI50 (UACC-62 melanoma),GI50 (OVCAR-8 ovarian),GI50 (K-562 leukemia),GI50 (HS 578T breast),TGI (HS 578T breast),GI50 (786-0 renal),GI50 (HL-60(TB) leukemia),GI50 (SNB-19 CNS)
CC(C)(C)c1cc(C(O)(C(F)(F)F)C(F)(F)F)c2c(c1)C(C(F)(F)F)(C(F)(F)F)OC(c1ccccc1)(C(C)(C)C)N2 (centres undefined),17.7 µM,4.91 µM,12.4 µM,16.6 µM,14.6 µM,26.2 µM,11.6 µM,> 100 µM,,,,,,,,,,,,
Cc1ccc(Cl)cc1Nc1nc(C(F)(F)F)ccc1C(=O)Oc1ccc(Cl)cc1,> 100 µM,24.3 µM,8.81 µM,43.8 µM,38.6 µM,29 µM,15 µM,30.8 µM,,7.99 µM,2.55 µM,14.5 µM,15.8 µM,7.62 µM,4.37 µM,3.13 µM,14.8 µM,14.3 µM,,9.42 µM
Cc1ccccc1NC(=O)c1[nH]c(=S)nc(N)c1-c1ccccc1C,> 100 µM,> 100 µM,> 100 µM,> 100 µM,> 100 µM,> 100 µM,> 100 µM,> 100 µM,> 100 µM,,,,,,,,,,,
Cc1cc(Cl)ccc1N1C(=O)C(=O)C(c2nc3ccccc3s2)C(=O)C1=O,> 100 µM,> 100 µM,> 100 µM,> 100 µM,> 100 µM,> 100 µM,> 100 µM,> 100 µM,> 100 µM,,,,,,,,,,,
CCN1C(=O)N(c2c(F)c(OC)cc(OC)c2F)Cc2cnc3[nH]c(CN4CCOCC4)cc3c21,,59.9 µM,> 100 µM,28.2 µM,51.5 µM,> 100 µM,> 100 µM,30.1 µM,> 100 µM,2.56 µM,5.73 µM,2.78 µM,3.77 µM,3.98 µM,8.66 µM,1.82 µM,> 100 µM,2.84 µM,3.05 µM,
Cc1ccc(S(=O)(=O)N2CCCCC2CCO)cc1 (centres undefined),> 100 µM,> 100 µM,> 100 µM,> 100 µM,> 100 µM,> 100 µM,> 100 µM,> 100 µM,> 100 µM,,,,,,,,,,,
O=C1C(c2ccccc2)=C(c2ccccc2)C(c2ccccc2)/C1=C1\C(=O)C(c2ccccc2)=C(c2ccccc2)C1c1ccccc1 (centres undefined),,> 100 µM,> 100 µM,> 100 µM,> 100 µM,> 100 µM,,> 100 µM,> 100 µM,,,,,,,,,,,
O=S1(=O)CSc2ccc3ccccc3c2-c2c1ccc1ccccc21,> 100 µM,> 100 µM,> 100 µM,> 100 µM,> 100 µM,> 100 µM,> 100 µM,> 100 µM,> 100 µM,,,,,,,,,,,
Cc1cccc(C)c1NC(=O)C(=O)C1C(=O)N(c2ccccc2)N=C1N (centres undefined),> 100 µM,> 100 µM,> 100 µM,> 100 µM,> 100 µM,> 100 µM,> 100 µM,> 100 µM,> 100 µM,,,,,,,,,,,
CC1=C(C(=O)Nc2ccc(F)c(Cl)c2)C(c2cccc(Cl)c2)NC(=O)N1 (centres undefined),39 µM,,56.2 µM,32.1 µM,26.7 µM,39.7 µM,,35.3 µM,0.156 µM,,19.5 µM,16 µM,13.2 µM,17.5 µM,,12.9 µM,37.7 µM,17.4 µM,,18.1 µM
CC(C)(C)c1ccccc1NS(=O)(=O)c1ccccc1,,> 100 µM,> 100 µM,> 100 µM,> 100 µM,> 100 µM,> 100 µM,> 100 µM,> 100 µM,,,,,,,,,,,
Cc1ccc(/C=C2\CCOC2=O)cc1,> 100 µM,> 100 µM,> 100 µM,> 100 µM,> 100 µM,> 100 µM,> 100 µM,> 100 µM,> 100 µM,> 100 µM,> 100 µM,> 100 µM,> 100 µM,> 100 µM,> 100 µM,,,> 100 µM,> 100 µM,> 100 µM
COc1ccccc1NC(=O)C1=C(C)NC(C)=C(C(=O)Nc2ccccc2OC)C1c1ccc(C(C)C)cc1,> 100 µM,> 100 µM,> 100 µM,> 100 µM,> 100 µM,> 100 µM,> 1 µM,> 100 µM,> 1 µM,,,,,,,,,,,
O=C(OCCOCCOC(=O)c1c[nH]cc1-c1ccccc1)c1c[nH]cc1-c1ccccc1,69.9 µM,49.1 µM,50 µM,42.1 µM,31 µM,84.7 µM,> 100 µM,73.1 µM,55.1 µM,,,,,,,,,,,
N#Cc1c2ccccc2c2nnc3cc(Cl)c(Cl)cc3n12,,> 100 µM,95.9 µM,61.6 µM,> 100 µM,> 100 µM,89.1 µM,> 100 µM,70.2 µM,27.4 µM,33.1 µM,23 µM,62.1 µM,40 µM,29 µM,,,> 100 µM,22.6 µM,
CC1SC(c2cccs2)N(NC(=O)C(O)c2ccccc2)C1=O (centres undefined),> 100 µM,> 100 µM,> 100 µM,> 100 µM,> 100 µM,> 100 µM,> 100 µM,> 100 µM,,> 100 µM,> 100 µM,> 100 µM,> 100 µM,> 100 µM,> 100 µM,> 100 µM,> 100 µM,> 100 µM,,> 100 µM
COc1ccc2c(CNCCCCO)cc3cc4c(cc3c2c1)OCO4,9.78 µM,3.94 µM,4.95 µM,7.72 µM,3.29 µM,6.68 µM,20.3 µM,> 32.2 µM,,0.263 µM,0.984 µM,1.92 µM,1.59 µM,0.341 µM,1.07 µM,0.929 µM,4.1 µM,1.63 µM,,1.71 µM
